Laboratory results from patent EP4389121A1, “ANTIVIRAL AMINO ACID DERIVATIVES” (Consejo Superior De Investigaciones Científicas (CSIC), priority 2022, dated 2024).
pEC50: −log10 of the molar value. Where two headings read alike, the source gives them in different places.

Key:
[1] = system: SARS-CoV-2 in Vero-E6 cells; assay: microbe, parasite or virus in culture; format: cell-based; details: for pEC50: read-out: EC50 approx.
SARS-CoV-2 [2] = assay: Intracellular viral antigen (N protein) accumulation by immunofluorescence, A549-ACE2 cells; format: cell-based
SARS-CoV-2 [3] = assay: Intracellular viral antigen (N protein) accumulation by immunofluorescence, Vero-E6 cells; format: cell-based
[4] = Cytotoxicity by MTT colorimetric assay, Vero-E6; format: cell-based; details: African green monkey, uninfected Vero-E6 cells
HCoV 229E (229E-GFP) = assay: organism not typed; details: Huh-7, 48 h
Protocol: (§1) To study the antiviral effect of selected compounds of the family against a distinct human coronavirus, Huh-7 cell monolayers were infected with a GFP-expressing recombinant HCoV 229E (229E-GFP) at MOI 0.01 in the presence of a wide range of compound concentrations (0.4 to 50 µM). Forty-eight hours later cells were fixed by 10 minutes incubation with a 4 % formaldehyde-PBS solution. After extensive washes with PBS, infection efficiency was evaluated by the detection of GFP accumulation by fluorescence microscopy. Nuclei were stained using DAPI (4',6-diamidino-2-phenylindole) dye. Automated imaging was carried out in a SparkCyto (Tecan) multimode plate reader. The total intensity signal present in vehicle-treated (DMSO) conditions was used as reference (100 %).

in vitro [5] = details: African green monkey
[6] = system: West Nile virus (WNV-GFP); assay: microbe, parasite or virus in culture; format: cell-based; details: Huh-7, 48 h
[7] = system: vesicular stomatitis virus (VSV-GFP); assay: microbe, parasite or virus in culture; format: cell-based; details: A549-ACE2, 16 h
in vitro [8] = details: human
in vitro [9] = details: human; remark: listed apart in the source
Protocol: as §1

in vitro [10] = details: human; remark: listed apart in the source
in vitro [11] = details: human; remark: listed apart in the source
Protocol: To evaluate the cytotoxicity profile of the selected compounds MTT assays were performed in Vero-E6 and A549-ACE2 cells. Uninfected cells were incubated with a range of compound concentrations (from 50 to 0.78 µM) for forty-eight hours, time at which the MTT substrate [3-(4,5-dimethylthiazol-2-yl)-2,5-diphenyltetrazolium bromide] was added and the formation of formazan precipitates was evaluated two hours later, using a colorimetric readout. Vehicle-treated (DMSO) cells were used as reference (100 %).

in vitro [12] = details: human; remark: listed apart in the source
Protocol: Cytotoxicity profile of the selected compounds was evaluated by MTT assays in parallel wells of Huh-7 cells. Uninfected cells were incubated with a range of compound concentrations (from 50 to 0.78 µM) for forty-eight hours, time at which the MTT substrate [3-(4,5-dimethylthiazol-2-yl)-2,5-diphenyltetrazolium bromide] was added and the formation of formazan precipitates was evaluated two hours later, using a colorimetric readout. Vehicle-treated (DMSO) cells were used as reference (100 %).

[13] = Severe acute respiratory syndrome coronavirus 2, Vero C1008, approximate, estimated from PCmax and PCmin, Vero-E6, MOI 0.001, 72 h
[14] = Severe acute respiratory syndrome coronavirus 2, Vero C1008, minimum nominal concentration protecting the Vero-E6 monolayer from virus-induced cell death, MOI 0.001, 72 h, read-out: PCmin
[15] = Severe acute respiratory syndrome coronavirus 2, Vero C1008, real concentration, Vero-E6, MOI 0.001, 72 h, read-out: PC min real
[16] = Severe acute respiratory syndrome coronavirus 2, Vero C1008, 72 h
[17] = Severe acute respiratory syndrome coronavirus 2, Vero C1008, 72 h, read-out: PC min real
[18] = Severe acute respiratory syndrome coronavirus 2, Vero C1008, 72 h, read-out: PCmin
[19] = Severe acute respiratory syndrome coronavirus 2, A549-ACE2, 48 h
[20] = Severe acute respiratory syndrome coronavirus 2, Vero C1008, 24 h
[21] = Severe acute respiratory syndrome coronavirus 2, A549-ACE2, MOI 0.005, 48 h, N protein signal, read-out: EC50
[22] = Severe acute respiratory syndrome coronavirus 2, A549-ACE2, MOI 0.005, 48 h, N protein signal, read-out: EC90
[23] = Severe acute respiratory syndrome coronavirus 2, Vero C1008, Vero-E6, MOI 0.01, 24 h, N protein signal, read-out: EC50
[24] = Severe acute respiratory syndrome coronavirus 2, Vero C1008, Vero-E6, MOI 0.01, 24 h, N protein signal, read-out: EC90

| Structure (SMILES) | pEC50 [1, 13] | minimal effective concentration [1, 14] [µM] | minimal effective concentration [1, 15] [µM] | pEC50 [1, 16] | minimal effective concentration [1, 17] [µM] | minimal effective concentration [1, 18] [µM] | also measured |
| --- | --- | --- | --- | --- | --- | --- | --- |
| CCOC(=O)[C@H](CCC(=O)NCCC1CCN(Cc2ccccc2)CC1)NC(=O)c1ccccc1 [NF1316] | 4.71 | 25 | 25.9 | – | – | – | – |
| CCCCCCOC(=O)[C@H](CCC(=O)NCCC1CCN(Cc2ccccc2)CC1)NC(=O)c1cccs1 [NF1350] | – | – | – | 5.16 | 9.2 | 6.25 | – |
| CCCCCCOC(=O)[C@H](CCC(=O)NCCC1CCN(Cc2ccccc2)CC1)NC(=O)Cc1cc2ccc(Cl)cc2s1 [NF1353] | – | – | – | 5.35 | 6 | 6.25 | – |
| CCCCCCOC(=O)[C@H](CCC(=O)NCCC1CCN(Cc2ccccc2)CC1)NC(=O)c1ccccc1 [NF0818] | – | – | – | 5.01 | – | – | PC min real ([1]; 72 h): 13.0 µM; PCmax real ([1]; 72 h): 51.9 µM |
| CCOC(=O)[C@H](CCC(=O)NCCC1CCN(Cc2ccccc2)CC1)NC(=O)c1ccc2cc(OC)ccc2c1 [NF1322] | 5.03 | 12.5 | 12.5 | – | – | – | – |
| CCOC(=O)[C@H](CCC(=O)NCCC1CCN(Cc2ccccc2)CC1)NC(=O)c1cc2ccccc2oc1=O [NF1358, Ethyl N^5-(2-(1-benzylpiperidin-4-yl)ethyl)-N^2-(2-oxo-2H-chromene-3-carbonyl)-L-glutaminate] | 4.72 | 25 | 25.4 | – | – | – | – |
| CCCCCCOC(=O)[C@H](CCC(=O)NCCC1CCN(Cc2ccccc2)CC1)NC(=O)OCc1ccccc1 [NF1349] | – | – | – | 5.33 | 6.3 | 6.25 | pEC50 (SARS-CoV-2 [2]; [19]): 5.52; EC90 (SARS-CoV-2 [2]; [19]): 5.5 µM; pEC50 (SARS-CoV-2 [3]; [20]): 5.51; EC90 (SARS-CoV-2 [3]; [20]): 7 µM; CC50 at 48 h [4]: > 50 µM; pEC50 (HCoV 229E (229E-GFP)): 5.70; EC90 (HCoV 229E (229E-GFP)): 10 µM; CC50 (in vitro [5]): > 50 µM; pEC50 [6]: 4.44; EC90 [6]: > 50 µM; pEC50 [7]: 4.44; EC90 [7]: 47 µM |
| CCOC(=O)[C@H](CCC(=O)NCCC1CCN(Cc2ccccc2)CC1)NC(=O)c1ccc2ccccc2n1 [NF1360, Ethyl N^5-(2-(1-benzylpiperidin-4-yl)ethyl)-N^2-(quinoline-2-carbonyl)-L-glutaminate] | 4.61 | 50 | 32.3 | – | – | – | – |
| CCCCCCOC(=O)[C@H](CCC(=O)NCCC1CCN(Cc2ccccc2)CC1)NC(=O)c1cc(=O)c2c(OC)cc(OC)cc2o1 [NF1340, n-Hexyl N^5-(2-(1-benzylpiperidin-4-yl)ethyl)-N^2-(5,7-dimethoxy-4-oxo-4H-chromene-2-carbonyl)-L-glutaminate] | 4.38 | 50 | 55.7 | – | – | – | – |
| CCCCCCOC(=O)[C@H](CCC(=O)NCCC1CCN(Cc2ccccc2)CC1)NC(=O)c1cc2ccccc2s1 [NF1352] | – | – | – | 5.04 | 12.3 | 12.5 | – |
| O=C(CC[C@H](NC(=O)OCc1ccccc1)C(=O)OCCBr)NCCC1CCN(Cc2ccccc2)CC1 [NF1363, 2-Bromoethyl N^2-((benzyloxy)carbonyl)-N^5-(2-(1-benzylpiperidin-4-yl)ethyl)-L-glutaminate] | 5.27 | 6.25 | 7.3 | – | – | – | – |
| CCCCCCOC(=O)[C@H](CCC(=O)NCCC1CCN(Cc2ccccc2)CC1)NC(=O)c1cc(Br)cs1 [NF1351] | – | – | – | 5.37 | 5.7 | 6.25 | – |
| CCCCCCOC(=O)[C@H](CCC(=O)NCCC1CCN(Cc2ccccc2)CC1)NC(=O)c1coc(C)n1 [NF1331, n-Hexyl N^5-(2-(1-benzylpiperidin-4-yl)ethyl)-N^2-(2-methyloxazole-4-carbonyl)-L-glutaminate] | 5.62 | 3.12 | 3.3 | – | – | – | pEC50 (SARS-CoV-2 [2]; [21]): 5.74; EC90 (SARS-CoV-2 [2]; [22]): 5 µM; pEC50 (SARS-CoV-2 [3]; [23]): 5.82; EC90 (SARS-CoV-2 [3]; [24]): 11 µM; CC50 at 48 h (in vitro [8]): > 50 µM; CC50 at 48 h [4]: > 50 µM; pEC50 (HCoV 229E (229E-GFP)): 5.70; EC90 (HCoV 229E (229E-GFP)): 20 µM; CC50 at 48 h (in vitro [9]): 43 µM; CC50 (in vitro [5]): > 50 µM; CC50 (in vitro [10]): > 50 µM; pEC50 [6]: < 4.30; EC90 [6]: > 50 µM; CC50 (in vitro [11]): > 50 µM; CC50 at 48 h (in vitro [11]): > 50 µM; pEC50 [7]: 4.42; EC90 [7]: > 50 µM; CC50 (in vitro [12]): > 50 µM; CC50 at 48 h (in vitro [12]): > 50 µM |
| CCCCCCOC(=O)[C@H](CCC(=O)NCCC1CCN(Cc2ccccc2)CC1)NC(=O)c1c[nH]c2ccccc12 [NF1325] | 4.71 | 25 | 26.1 | – | – | – | – |
| CCOC(=O)[C@H](CCC(=O)NCCC1CCN(Cc2ccccc2)CC1)NC(=O)OCc1ccccc1 [NF1365, Ethyl N^2-((benzyloxy)carbonyl)-N^5-(2-(1-benzylpiperidin-4-yl)ethyl)-L-glutaminate] | 5.62 | 3.12 | 3.2 | – | – | – | pEC50 (SARS-CoV-2 [2]; [21]): 5.70 to 6.00; EC90 (SARS-CoV-2 [2]; [22]): 2.5 to 5 µM; pEC50 (SARS-CoV-2 [3]; [23]): 5.74; EC90 (SARS-CoV-2 [3]; [24]): 6 µM; CC50 at 48 h [4]: > 50 µM; pEC50 (HCoV 229E (229E-GFP)): 6.00; EC90 (HCoV 229E (229E-GFP)): 8 µM; CC50 (in vitro [5]): 50 µM; pEC50 [6]: 4.57; EC90 [6]: 45 µM; pEC50 [7]: 4.44; EC90 [7]: 47 µM |
| CCCCCCOC(=O)[C@H](CCC(=O)NCCC1CCN(Cc2ccccc2)CC1)NC(=O)Cc1cc(C)no1 [NF1334, n-Hexyl N^5-(2-(1-benzylpiperidin-4-yl)ethyl)-N^2-(2-(3-methylisoxazol-5-yl)acetyl)-L-glutaminate] | 4.98 | 25 | 14 | – | – | – | – |
| CCCCCCOC(=O)[C@H](CCC(=O)NCCC1CCN(Cc2ccccc2)CC1)NC(=O)c1cc(=O)c2cc(OC)ccc2o1 [NF1337, n-Hexyl N^5-(2-(1-benzylpiperidin-4-yl)ethyl)-N^2-(6-methoxy-4-oxo-4H-chromene-2-carbonyl)-L-glutaminate] | 5.11 | 12.5 | 10.3 | – | – | – | – |
| CCOC(=O)CC[C@H](NC(=O)OCc1ccccc1)C(=O)NCCC1CCN(Cc2ccccc2)CC1 [NF1313] | 4.72 | 25 | 25.3 | – | – | – | – |
| CCOC(=O)[C@H](CCC(=O)NCCC1CCN(Cc2ccccc2)CC1)NC(=O)c1cc(=O)c2cc(OC)ccc2o1 [NF1336, Ethyl N^5-(2-(1-benzylpiperidin-4-yl)ethyl)-N^2-(6-methoxy-4-oxo-4H-chromene-2-carbonyl)-L-glutaminate] | 4.74 | 25 | 24.5 | – | – | – | – |
| CCCCCCOC(=O)[C@H](CCC(=O)NCCC1CCN(Cc2ccccc2)CC1)NC(=O)OC(C)(C)C [NF1346] | – | – | – | 5.03 | 12.4 | 12.5 | – |
| CCCCCCOC(=O)[C@H](CCC(=O)NCCC1CCN(Cc2ccccc2)CC1)NC(=O)c1cc2cccnc2s1 [NF1354] | – | – | – | 4.68 | 27.8 | 25 | – |
| CCCCCCOC(=O)[C@H](CCC(=O)NCCC1CCN(Cc2ccccc2)CC1)NC(=O)c1cc(C)on1 [NF1328, n-Hexyl N^5-(2-(1-benzylpiperidin-4-yl)ethyl)-N^2-(5-methylisoxazole-3-carbonyl)-L-glutaminate] | 5.31 | 6.25 | 6.5 | – | – | – | – |
